Laboratory results as given in patent publication US11226337B2, “Chemoproteomic profiling of protein electrophilic and oxidative post-translational modifications” (Zenagem, LLC, priority 2017, dated 2022).

Tests used:
Experiment in all cases: SILAC RP-ABPP
Type in all cases: cell-based
[1] = biological target: T1, FTL Ferritin light chain (P02792) (Homo sapiens, UniProt P02792); conditions: SILAC H/L, MDA-MB-231
T1 construct: endogenous in cells; host or cells: HEK293T or MDA-MB-231
Procedure: (§1) For MS-based experiments, labelling was performed in a similar manner as described above in Example 2, maintaining the same concentrations of probes. Modifications to this protocol included using isotopically ‘light’ and ‘heavy’ SILAC cells that were also grown to near complete confluence prior to treatment. Isotopically light cells were treated with the non-clickable hydrazine probe (at the same concentration as the probe in ‘enrichment’ experiments) or the probe in the presence of 10-fold excess non-clickable hydrazine probe as a competitor (in ‘competition’ experiments). Isotopically heavy cells were treated with the probe for both types of experiments. These treatments were performed in non-SILAC media. Following treatments, cells were washed with cold PBS to remove the probe-containing media, harvested by scraping, collected by centrifugation (1,400 g, 3 min, 4° C.), washed again by resuspension in cold PBS and frozen as pellets at −80° C. until use.
(§2) The fractionated equimolar mixture of heavy and light soluble proteomes (1-1.5 mg) was diluted to 1 mL in PBS. Click reactions were scaled accordingly (except for biotin-azide) to maintain final concentrations of 0.1 mM TBTA, 1 mM CuSO4, 100 μM biotin-azide (10 mM in DMSO) and 1 mM TCEP. The mixture was vortexed and placed on a rotator at ambient temperature for 1 hour. Sequential addition of and mixture with pre-chilled methanol (MeOH, 2 mL), chloroform (CHCl3, 0.5 mL) and PBS (1 mL) on ice quenched the reaction. The precipitated proteome was centrifuged (5,000 g, 10 min, 4° C.) to fractionate the protein interphase from the organic and aqueous solvent layers. The protein pellet was washed with cold 1:1 MeOH:CHCl3 (3×1 mL), mildly sonicated in cold 4:1 MeOH:CHCl3 (2.5 mL) and pelleted once more by centrifugation (5,000 g, 10 min, 4° C.) to ensure click reagents were efficiently removed.
(§3) Heavy and light parent ion chromatograms associated with successfully identified peptides were extracted and compared using CIMAGE software as previously described^69. At least one ion of a co-eluting heavy-light pair must be accurately identified from a fragmentation event that occurred within the retention time window (±10 min) of parent ion elution. To ensure that the correct pair of peaks is quantified, chromatograms are extracted within a 10 ppm error tolerance of the predicted m/z, the signal-to-noise ratio must be >2.5 and the ‘co-elution correlation score’ and ‘envelope correlation score’ must have R^2 values ≥0.8. In addition, peptides detected as ‘singletons,’ where only the heavy ion of a peptide pair was identified, but for which passed all other filtering parameters, are given a default assigned ratio of ‘20,’ which is defined as any measured ratio that is ≥20.
(§4) To further eliminate false positives and any stochastic variability in the data, protein ratios were then determined by the median peptide ratio derived from three or more unique quantified peptides. Protein ratios that complied with these criteria from a single experiment were then averaged with ratios acquired from ≥3 replicates to provide final values for each type of experiment in both cell lines with both probes. […] Most importantly, there are no robustly measured ratios for proteins identified as probe 1 targets that had measured ratios of ˜1 with probe 2. Probe targets in HEK293T and MDA-MB-231 cells represent data combined from ≥3 independent biological replicates with each cell type performed with several independent batches of synthesized probes over a period of almost two years.
(§5) Analogous experiments were also performed with the aryl hydrazine probe 2 (1 mM, 0.5 hour), which furnished a larger list of high-reactivity proteins (33 in total; Table 3) that contained several of the targets of probe 1 (compared in Table 4), as well as additional proteins that may reflect an expanded chemical reactivity for probe 2.

[2] = biological target: T2, PXDN Peroxidasin homolog (Q92626) (Homo sapiens, UniProt Q92626); conditions: SILAC H/L, MDA-MB-231
T2 construct: In Situ Labelling of Cells with Hydrazine Probes for MS Experiments; endogenous in cells; host or cells: HEK293T and/or MDA-MB-231
T2 sequence (Q92626 27-1479): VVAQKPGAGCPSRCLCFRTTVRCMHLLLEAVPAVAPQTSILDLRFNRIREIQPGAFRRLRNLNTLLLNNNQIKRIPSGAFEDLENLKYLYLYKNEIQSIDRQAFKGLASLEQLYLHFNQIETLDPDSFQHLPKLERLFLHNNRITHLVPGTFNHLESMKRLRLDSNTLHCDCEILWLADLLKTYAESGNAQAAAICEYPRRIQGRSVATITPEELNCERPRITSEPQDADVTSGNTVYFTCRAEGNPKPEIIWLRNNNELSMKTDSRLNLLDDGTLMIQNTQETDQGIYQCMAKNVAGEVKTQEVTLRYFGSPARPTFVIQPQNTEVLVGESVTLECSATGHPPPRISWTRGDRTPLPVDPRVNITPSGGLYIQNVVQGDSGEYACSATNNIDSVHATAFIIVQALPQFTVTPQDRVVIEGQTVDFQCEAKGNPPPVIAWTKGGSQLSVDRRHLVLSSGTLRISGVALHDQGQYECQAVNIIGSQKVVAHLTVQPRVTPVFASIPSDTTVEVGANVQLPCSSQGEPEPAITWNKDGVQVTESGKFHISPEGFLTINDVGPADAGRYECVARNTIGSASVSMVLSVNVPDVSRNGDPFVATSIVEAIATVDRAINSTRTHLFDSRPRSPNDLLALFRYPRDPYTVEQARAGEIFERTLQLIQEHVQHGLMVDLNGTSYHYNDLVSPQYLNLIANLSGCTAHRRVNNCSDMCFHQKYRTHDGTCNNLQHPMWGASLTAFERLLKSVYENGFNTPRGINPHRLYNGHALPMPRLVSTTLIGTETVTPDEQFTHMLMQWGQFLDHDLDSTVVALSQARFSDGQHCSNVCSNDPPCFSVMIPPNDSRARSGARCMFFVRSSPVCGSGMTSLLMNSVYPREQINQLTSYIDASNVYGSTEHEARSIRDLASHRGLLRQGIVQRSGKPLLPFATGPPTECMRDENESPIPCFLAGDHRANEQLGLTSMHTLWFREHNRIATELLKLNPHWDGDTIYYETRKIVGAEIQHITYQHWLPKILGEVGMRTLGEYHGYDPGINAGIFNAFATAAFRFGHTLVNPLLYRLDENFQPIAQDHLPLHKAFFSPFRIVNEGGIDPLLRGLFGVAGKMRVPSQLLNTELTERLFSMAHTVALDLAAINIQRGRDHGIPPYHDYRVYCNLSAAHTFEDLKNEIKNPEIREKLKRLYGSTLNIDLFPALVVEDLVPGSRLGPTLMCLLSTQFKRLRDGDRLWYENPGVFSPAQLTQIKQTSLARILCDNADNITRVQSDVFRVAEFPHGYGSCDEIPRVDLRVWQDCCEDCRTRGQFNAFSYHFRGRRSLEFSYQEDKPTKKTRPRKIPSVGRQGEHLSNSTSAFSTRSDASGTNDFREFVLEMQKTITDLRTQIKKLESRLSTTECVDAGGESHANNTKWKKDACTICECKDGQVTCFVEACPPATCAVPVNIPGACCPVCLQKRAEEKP
Procedure: as §1, §2, §3, §4, §5

[3] = biological target: T3, HEXB Betahexosaminidase subunit beta (P07686) (Homo sapiens, UniProt P07686); conditions: SILAC H/L, MDA-MB-231
T3 construct: endogenous in cells; host or cells: HEK293T or MDA-MB-231
Procedure: as §1, §2, §3, §4, §5

[4] = biological target: T4, MINA MYCinduced nuclear antigen (Q8IUF8) (Homo sapiens, UniProt Q8IUF8); conditions: SILAC H/L, HEK293T
T4 construct: In Situ Labelling of Cells with Hydrazine Probes for MS Experiments; endogenous in cells; host or cells: HEK293T and/or MDA-MB-231
T4 sequence (Q8IUF8 whole entry): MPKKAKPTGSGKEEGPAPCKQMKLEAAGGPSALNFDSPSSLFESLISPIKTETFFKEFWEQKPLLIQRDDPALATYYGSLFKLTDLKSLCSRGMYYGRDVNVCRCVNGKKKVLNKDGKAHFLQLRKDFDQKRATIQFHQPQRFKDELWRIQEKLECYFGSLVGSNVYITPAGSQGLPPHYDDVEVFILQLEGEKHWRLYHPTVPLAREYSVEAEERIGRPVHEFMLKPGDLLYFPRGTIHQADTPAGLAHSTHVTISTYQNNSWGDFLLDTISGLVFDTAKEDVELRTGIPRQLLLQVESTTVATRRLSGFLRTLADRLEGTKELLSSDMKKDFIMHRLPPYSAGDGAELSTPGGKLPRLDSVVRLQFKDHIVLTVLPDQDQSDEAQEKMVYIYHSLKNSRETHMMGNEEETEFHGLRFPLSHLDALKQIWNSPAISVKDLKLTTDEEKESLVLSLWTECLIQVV
Procedure: as §1, §2, §3, §4, §5

[5] = biological target: T5, PRCP Lysosomal ProX carboxypeptidase (P42785) (Homo sapiens, UniProt P42785); conditions: SILAC H/L, MDA-MB-231
T5 construct: endogenous in cells; host or cells: HEK293T or MDA-MB-231
T5 sequence (P42785 46-496): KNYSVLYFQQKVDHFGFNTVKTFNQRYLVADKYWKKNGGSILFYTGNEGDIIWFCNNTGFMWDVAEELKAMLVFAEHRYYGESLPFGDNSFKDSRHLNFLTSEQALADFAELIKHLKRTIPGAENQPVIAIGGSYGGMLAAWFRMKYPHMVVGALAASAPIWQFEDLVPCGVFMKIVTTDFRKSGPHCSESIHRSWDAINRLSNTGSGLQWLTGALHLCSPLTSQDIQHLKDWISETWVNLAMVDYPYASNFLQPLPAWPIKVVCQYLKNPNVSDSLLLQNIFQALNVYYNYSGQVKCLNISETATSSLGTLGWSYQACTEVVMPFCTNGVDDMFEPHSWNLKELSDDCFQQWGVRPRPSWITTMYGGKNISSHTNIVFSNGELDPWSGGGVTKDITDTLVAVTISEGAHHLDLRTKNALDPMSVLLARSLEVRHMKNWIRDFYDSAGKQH
Procedure: as §1, §2, §3, §4, §5

[6] = biological target: T6, MMP14 Matrix metalloproteinase14 (P50281) (Homo sapiens, UniProt P50281); conditions: SILAC H/L, MDA-MB-231
T6 construct: endogenous in cells; host or cells: HEK293T or MDA-MB-231
Procedure: as §1, §2, §3, §4, §5

[7] = biological target: T7, CTSS Cathepsin S (P25774) (Homo sapiens, UniProt P25774); conditions: SILAC H/L, MDA-MB-231
T7 construct: endogenous in cells; host or cells: HEK293T or MDA-MB-231
T7 sequence (P25774 115-331): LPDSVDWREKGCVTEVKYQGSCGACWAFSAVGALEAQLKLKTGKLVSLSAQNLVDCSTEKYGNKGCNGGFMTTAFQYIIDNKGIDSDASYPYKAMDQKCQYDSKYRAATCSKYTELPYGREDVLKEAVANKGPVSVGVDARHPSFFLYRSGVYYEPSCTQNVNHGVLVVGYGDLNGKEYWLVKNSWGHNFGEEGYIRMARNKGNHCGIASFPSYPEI
Procedure: as §1, §2, §3, §4, §5

[8] = biological target: T8, RAB14 Rasrelated protein Rab14 (P61106) (Homo sapiens, UniProt P61106); conditions: SILAC H/L, MDA-MB-231
T8 construct: endogenous in cells; host or cells: HEK293T or MDA-MB-231
T8 sequence (P61106 whole entry): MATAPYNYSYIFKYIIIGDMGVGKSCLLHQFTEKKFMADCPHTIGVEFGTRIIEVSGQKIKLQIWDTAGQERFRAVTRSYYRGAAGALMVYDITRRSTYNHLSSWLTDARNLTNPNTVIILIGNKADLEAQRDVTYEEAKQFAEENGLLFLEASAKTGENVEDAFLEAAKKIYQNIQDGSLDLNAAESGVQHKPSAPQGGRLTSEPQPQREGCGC
Procedure: as §1, §2, §3, §4, §5

[9] = biological target: T9, HMOX2 Heme oxygenase 2 (P30519) (Homo sapiens, UniProt P30519); conditions: SILAC H/L, HEK293T
T9 construct: In Situ Labelling of Cells with Hydrazine Probes for MS Experiments; endogenous in cells; host or cells: HEK293T and/or MDA-MB-231
T9 sequence (P30519 whole entry): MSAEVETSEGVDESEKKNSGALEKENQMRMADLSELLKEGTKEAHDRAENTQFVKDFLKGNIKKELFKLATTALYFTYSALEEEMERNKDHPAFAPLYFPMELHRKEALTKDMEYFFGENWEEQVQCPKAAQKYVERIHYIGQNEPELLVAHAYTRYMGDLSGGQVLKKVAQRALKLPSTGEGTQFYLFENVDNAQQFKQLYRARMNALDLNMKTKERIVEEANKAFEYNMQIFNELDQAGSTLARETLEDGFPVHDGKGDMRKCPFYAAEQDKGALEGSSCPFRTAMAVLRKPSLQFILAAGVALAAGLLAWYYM
Procedure: as §1, §2, §3, §4, §5

CAT Catalase (P04040) = biological target: T10, CAT Catalase (P04040) (Homo sapiens, UniProt P04040); conditions: SILAC H/L, MDA-MB-231
T10 construct: endogenous in cells; host or cells: HEK293T or MDA-MB-231
T10 sequence (P04040 whole entry): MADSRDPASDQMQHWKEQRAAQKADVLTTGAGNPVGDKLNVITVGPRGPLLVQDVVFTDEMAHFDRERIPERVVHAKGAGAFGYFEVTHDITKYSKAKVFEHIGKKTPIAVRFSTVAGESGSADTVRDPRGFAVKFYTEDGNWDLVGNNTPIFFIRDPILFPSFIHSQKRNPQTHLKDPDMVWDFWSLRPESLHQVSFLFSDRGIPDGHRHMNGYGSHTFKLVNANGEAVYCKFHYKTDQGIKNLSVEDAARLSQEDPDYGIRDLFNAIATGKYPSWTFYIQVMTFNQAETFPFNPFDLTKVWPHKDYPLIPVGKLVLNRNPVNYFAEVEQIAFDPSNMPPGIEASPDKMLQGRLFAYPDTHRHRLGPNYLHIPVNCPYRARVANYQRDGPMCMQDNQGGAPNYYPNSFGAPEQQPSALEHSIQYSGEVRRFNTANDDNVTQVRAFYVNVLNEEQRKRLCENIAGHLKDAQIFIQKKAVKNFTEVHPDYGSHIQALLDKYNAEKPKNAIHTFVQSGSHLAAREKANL
Procedure: as §1, §2, §3, §4, §5

[10] = biological target: T11, PHYHD1 PhytanoylCoA dioxygenase (Q5SRE7) (Homo sapiens, UniProt Q5SRE7); conditions: SILAC H/L, MDA-MB-231
T11 construct: In Situ Labelling of Cells with Hydrazine Probes for MS Experiments; endogenous in cells; host or cells: HEK293T and/or MDA-MB-231
T11 sequence (Q5SRE7 whole entry): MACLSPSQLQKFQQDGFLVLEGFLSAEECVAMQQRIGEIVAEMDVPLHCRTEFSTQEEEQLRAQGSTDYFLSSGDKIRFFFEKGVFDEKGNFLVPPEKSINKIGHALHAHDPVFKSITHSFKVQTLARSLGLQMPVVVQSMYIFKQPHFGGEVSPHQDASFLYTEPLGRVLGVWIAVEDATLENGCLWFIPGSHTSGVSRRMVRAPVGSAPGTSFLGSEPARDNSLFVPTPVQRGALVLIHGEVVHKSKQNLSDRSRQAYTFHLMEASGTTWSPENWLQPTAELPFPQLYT
Procedure: as §1, §2, §3, §4, §5

[11] = biological target: T12, SCD AcylCoA desaturase (O00767) (Homo sapiens, UniProt O00767); conditions: SILAC H/L, HEK293T
T12 construct: In Situ Labelling of Cells with Hydrazine Probes for MS Experiments; endogenous in cells
T12 sequence (O00767 whole entry): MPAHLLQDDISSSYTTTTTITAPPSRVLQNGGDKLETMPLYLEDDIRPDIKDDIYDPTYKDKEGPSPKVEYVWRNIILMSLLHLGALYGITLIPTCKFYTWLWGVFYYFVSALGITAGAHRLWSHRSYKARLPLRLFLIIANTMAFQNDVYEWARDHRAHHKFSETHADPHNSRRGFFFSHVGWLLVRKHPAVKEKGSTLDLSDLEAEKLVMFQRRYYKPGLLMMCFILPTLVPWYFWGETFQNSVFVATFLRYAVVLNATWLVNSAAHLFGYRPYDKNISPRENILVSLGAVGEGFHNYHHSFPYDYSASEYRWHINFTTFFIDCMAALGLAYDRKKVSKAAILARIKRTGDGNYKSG
Procedure: as §1, §2, §3, §4, §5

[12] = biological target: T13, CMBL Carboxymethylenebutenolidase homolog (Q96DG6) (Homo sapiens, UniProt Q96DG6); conditions: SILAC H/L, HEK293T
T13 construct: In Situ Labelling of Cells with Hydrazine Probes for MS Experiments; endogenous in cells; host or cells: HEK293T and/or MDA-MB-231
T13 sequence (Q96DG6 whole entry): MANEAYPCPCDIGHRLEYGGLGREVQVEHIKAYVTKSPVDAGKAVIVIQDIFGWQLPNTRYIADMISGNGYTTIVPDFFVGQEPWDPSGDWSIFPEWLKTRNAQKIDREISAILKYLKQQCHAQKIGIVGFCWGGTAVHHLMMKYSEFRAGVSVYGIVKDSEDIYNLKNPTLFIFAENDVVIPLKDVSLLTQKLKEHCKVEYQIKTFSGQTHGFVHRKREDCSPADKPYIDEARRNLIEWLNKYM
Procedure: as §1, §2, §3, §4, §5

[13] = biological target: T14, RRM2 Ribonucleosidediphosphate reductase (P31350) (Homo sapiens, UniProt P31350); conditions: SILAC H/L, HEK293T
T14 construct: In Situ Labelling of Cells with Hydrazine Probes for MS Experiments; endogenous in cells; host or cells: HEK293T and/or MDA-MB-231
T14 sequence (P31350 whole entry): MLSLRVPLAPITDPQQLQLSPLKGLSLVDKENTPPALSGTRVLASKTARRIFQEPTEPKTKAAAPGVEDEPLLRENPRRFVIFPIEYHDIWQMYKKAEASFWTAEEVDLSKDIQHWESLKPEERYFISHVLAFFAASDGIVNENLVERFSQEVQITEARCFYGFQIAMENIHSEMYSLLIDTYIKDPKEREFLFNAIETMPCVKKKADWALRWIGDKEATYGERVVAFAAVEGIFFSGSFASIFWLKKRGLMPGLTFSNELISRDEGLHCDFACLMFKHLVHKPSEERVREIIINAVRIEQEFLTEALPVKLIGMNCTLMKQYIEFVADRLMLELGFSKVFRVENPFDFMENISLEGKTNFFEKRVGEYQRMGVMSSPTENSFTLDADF
Procedure: as §1, §2, §3, §4, §5

## C#CCCNC(=O)c1ccc(NN)cc1.Cl [probe 2, N-(but-3-yn-1-yl)-4-hydrazinylbenzamide hydrochloride]
[1]; probe 2 1 mM 0.5 h vs probe 4
  enrichment ratioavg: 7
[1]; probe 2 vs probe 2+10x probe 4
  competition ratioavg: 3
[2]; probe 2 1 mM 0.5 h vs probe 4
  enrichment ratioavg: 20
[2]; probe 2 vs probe 2+10x probe 4
  competition ratioavg: 5
[3]; probe 2 1 mM 0.5 h vs probe 4
  enrichment ratioavg: 11
[3]; probe 2 vs probe 2+10x probe 4
  competition ratioavg: 3
[4]; probe 2 1 mM 0.5 h vs probe 4
  enrichment ratioavg: 8
[4]; probe 2 vs probe 2+10x probe 4
  competition ratioavg: 2
[5]; probe 2 1 mM 0.5 h vs probe 4
  enrichment ratioavg: 15
[5]; probe 2 vs probe 2+10x probe 4
  competition ratioavg: 4
[6]; probe 2 1 mM 0.5 h vs probe 4
  enrichment ratioavg: 10
[6]; probe 2 vs probe 2+10x probe 4
  competition ratioavg: 3
[7]; probe 2 1 mM 0.5 h vs probe 4
  enrichment ratioavg: 18
[7]; probe 2 vs probe 2+10x probe 4
  competition ratioavg: 3
[8]; probe 2 1 mM 0.5 h vs probe 4
  enrichment ratioavg: 5
[8]; probe 2 vs probe 2+10x probe 4
  competition ratioavg: 3
[9]; probe 2 1 mM 0.5 h vs probe 4
  enrichment ratioavg: 20
[9]; probe 2 vs probe 2+10x probe 4
  competition ratioavg: 5
CAT Catalase (P04040); probe 2 1 mM 0.5 h vs probe 4
  enrichment ratioavg: 20
CAT Catalase (P04040); probe 2 vs probe 2+10x probe 4
  competition ratioavg: 1
[10]; probe 2 1 mM 0.5 h vs probe 4
  enrichment ratioavg: 14
[10]; probe 2 vs probe 2+10x probe 4
  competition ratioavg: 5
[11]; probe 2 1 mM 0.5 h vs probe 4
  enrichment ratioavg: 20
[11]; probe 2 vs probe 2+10x probe 4
  competition ratioavg: 9
[12]; probe 2 1 mM 0.5 h vs probe 4
  enrichment ratioavg: 18
[12]; probe 2 vs probe 2+10x probe 4
  competition ratioavg: 3
[13]; probe 2 1 mM 0.5 h vs probe 4
  enrichment ratioavg: 13
[13]; probe 2 vs probe 2+10x probe 4
  competition ratioavg: 1
